According to patent US20240300975A1, “DIMETHYL-SUBSTITUTED THIAZOLOLACTAM COMPOUND AND USE THEREOF” (D3 Bio (Wuxi) Co., Ltd., priority 2021, published 2024):
≈ marks a conversion by molar mass, not a printed value. Read-outs that look alike come from different tables or passages of the source.

Columns and labels:
[1] = Solubility study (HPLC-UV, 24 h shaking); format: physicochemical; details: 25 °C, aqueous buffer, kinetic from dmso stock, 2% DMSO, max 200 μM
Experimental: The solubility of a compound was determined to evaluate the solubility property of the compound.
• 1) Buffer A (pH 2.0): 50 mM phosphate buffer, pH 2.0; Buffer B (pH 6.5): 50 mM phosphate buffer, pH 6.5; Buffer C (pH 7.4): 50 mM phosphate buffer, pH 7.4; • 2) Preparation of standard solution: • a) 50% acetonitrile solution and 50% buffer solution were mixed to obtain a diluent; • b) 10 mM (10 μL/compound) compound stock solution was added to the diluent (490 μL/compound) to obtain 200 μM detection standard solution; • c) The 200 μM UV detection standard solution was diluted with 10-fold and 200-fold volume of diluents to obtain 20 μM and 1 μM UV standard solutions, respectively; • d) 1 μM, 20 μM, and 200 μM UV standard solutions were used as standard solutions for solubility assay.
• a) The compound was dissolved in DMSO to prepare a 10 mM stock solution. […] The pH of the corresponding solubility solutions was 2.0, 6.5 and 7.4, respectively. The theoretical maximum concentration of the assay compound is 200 μM with 2% DMSO; • c) The plate was shaken in a shaker at room temperature (25±2° C.) at 600 rpm for 24 hours; • d) 200 μL of the solution was pipetted from the 96-well plate, filtered with suction by a vacuum suction filtration device, and transferred into a new 96-well plate as an assay sample; • e) The compound concentration was determined using HPLC-UV.
• f) Three UV standard solutions from low concentration to high concentration (1 μM, 20 μM, 200 μM) were injected into HPLC, and then the assay sample of the compound to be assayed was injected; • g) The UV chromatographic peaks were integrated, and the solubility of the sample was calculated.

[2] = test system: HT29 tumor cells; assay: In vitro cell proliferation inhibition (CellTiterGlo); format: cell-based; details: Homo sapiens, HT-29
Experimental: The ability of compounds to inhibit the proliferation of HT29 tumor cells was measured.
The assay compound was dissolved in 100% DMSO to prepare 10 mM stock solution.
• a) UV light of a biological safety cabin was turned on, and 30 minutes were counted down; • b) In a 37° C. water bath, RPMI1640 medium and trypsin were preheated; • c) After completion of the UV irradiation, the biological safety cabin was opened. The preheated medium, trypsin and phosphate buffered saline (PBS), etc. were wiped with alcohol and placed in the biological safety cabin; • d) HT29 cells were removed from the incubator, and the old medium was removed in biological safety cabin. 10 ml of PBS was added. […] The culture vessel was shaken horizontally so that the trypsin evenly covered the cells at the bottom, and placed in an incubator for 2 minutes; • f) Cell digestion was stopped with complete medium, and the cell suspension was pipetted to homogeneity and counted; • g) According to the result of cell counting, the density of cell suspension was adjusted to 1500 cells per well, and the cell suspension was seeded at 50 μl per well; • h) The stock solution of compounds was serially diluted in DMSO solution, and compounds were added to cell plate using Tecan; • i) The compound-added cell plate and CellTiterGlo were equilibrated at room temperature, and 25 microliters of CellTiterGlo was then added to each well. […]

[3] = In vivo PK study in cynomolgus monkeys; details: male cynomolgus monkeys
Experimental: Male cynomolgus monkeys were used as assay animals. After a single administration, the plasma concentration of the compound was measured and the pharmacokinetic behavior was evaluated.
Five healthy adult male cynomolgus monkeys were selected, wherein 2 animals were in an intravenous injection group, and 3 animals were in an oral group. The vehicle in the intravenous injection group was 5% DMSO+95% (20% HP-β-CD). The compound to be assayed was mixed with an appropriate amount of vehicle for intravenous injection, and dissolved with stirring to prepare a clear solution of 0.4 mg/mL. The clear solution was filtered by a microporous membrane, and then ready for use. The vehicle in the oral group was 5% DMSO+95% (20% HP-β-CD). The compound to be assayed was mixed with the vehicle, and dissolved with stirring to prepare a solution of 0.3 mg/mL. Cynomolgus monkeys were administered 1 mg/kg intravenously or 3 mg/kg orally, and then whole blood was collected for a certain period. Plasma was prepared. The drug concentration was analyzed by LC-MS/MS method, and the pharmacokinetic parameters were calculated by Phoenix WinNonlin software (Pharsight, USA).

[4] = biological target: ERK2 (Homo sapiens (Human), UniProt P28482); assay: In vitro ERK2 kinase activity assay (33P-ATP, filter-binding); format: biochemical
ERK2, sequence (P28482 whole entry): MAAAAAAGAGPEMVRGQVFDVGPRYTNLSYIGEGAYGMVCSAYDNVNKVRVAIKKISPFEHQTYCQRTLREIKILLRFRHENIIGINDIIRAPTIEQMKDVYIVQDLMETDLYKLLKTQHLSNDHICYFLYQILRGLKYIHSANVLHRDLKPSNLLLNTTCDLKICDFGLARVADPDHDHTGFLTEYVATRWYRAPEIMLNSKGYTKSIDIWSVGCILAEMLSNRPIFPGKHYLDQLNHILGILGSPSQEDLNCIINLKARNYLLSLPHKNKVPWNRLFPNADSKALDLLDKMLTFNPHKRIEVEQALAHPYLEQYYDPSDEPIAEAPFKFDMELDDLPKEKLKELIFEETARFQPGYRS
Experimental: The ability of compounds to inhibit ERK1 and ERK2 kinase activity was measured.
20 mM Hepes (pH 7.5), 10 mM MgCl2, 1 mM ethylenebis(oxyethylenenitrilo)tetraacetic acid (EGTA), 0.02% Brij35, 0.02 mg/mL bovine serum albumin (BSA), 0.1 mM Na3VO4, 2 mM dithiothreitol (DTT), 1% DMSO.
The assay compound was dissolved in 100% DMSO to prepare a stock solution of specific concentration. The compound was serially diluted in DMSO solution using Integra Viaflo Assist smart pipette.
• a) The substrate MBP was prepared in freshly prepared reaction buffer; • b) ERK1 (or ERK2) kinase was added to the above-mentioned MBP solution and mixed gently; • c) The compound dissolved in 100% DMSO was added to the kinase reaction system using ultrasound technology (Echo550; nanoliter range), and the mixture was incubated at room temperature for 20 minutes; • d)^33P-ATP (specific concentration of […]) was added to the reaction system, and the reaction was started at this time; • e) The mixture was incubated at room temperature for 2 hours; • f) The amount of radioactivity was detected by filter-binding method; • g) ERK1 (or ERK2) kinase activity was calculated as the ratio of the remaining kinase activity in the assay sample to the kinase activity of the control group (treated by DMSO).
Curve was fitted using Prism (GraphPad software) and IC50 values were calculated.

## Cc1cccc(CN2C(=O)c3nc(-c4nc(Nc5ccnn5C)ncc4C)sc3C2(C)C)n1 [WX001]
[1]; 50 mM phosphate buffer pH 2.0, 25±2° C., read-out: Solubility pH = 2.0
  solubility at 24 h: > 200 µM
[1]; 50 mM phosphate buffer pH 6.5, 25±2° C., read-out: Solubility pH = 6.5
  solubility at 24 h: 6.2 µM (≈ 2.86 µg/mL)
[1]; 50 mM phosphate buffer pH 7.4, 25±2° C., read-out: Solubility pH = 7.4
  solubility at 24 h: 7.08 µM (≈ 3.26 µg/mL)
[2]
  IC50: 21 nM
[3]; cynomolgus monkey, plasma, iv, 1 mg/kg intravenously
  clearance: 7.9 mL/min/kg
[3]; cynomolgus monkey, plasma, iv, 1 mg/kg intravenously, read-out: Vdss
  Vd: 1.19 L/kg
[3]; cynomolgus monkey, plasma, oral, 1 mg/kg intravenously / 3 mg/kg orally, read-out: F % (oral bioavailability)
  bioavailability: 41%
[3]; cynomolgus monkey, plasma, single administration
  half-life: 2 h
[3]; cynomolgus monkey, po, 3 mg/kg orally, plasma
  Cmax: 1250 nM
[3]; 3 mg/kg orally
  Oral DNAUC (AUCPO/Dose): 1995.93 nM · h/mpk
[4]
  IC50: 0.49 nM
